Assay results published in BindingDB's records for doi:10.1002/cbic.200400135 (Max Planck Institute for Coal Research, 2004).

How the values were obtained:
Assay in all cases: Phosphatase Inhibition Assay
[1] = biological target: T1, M-phase inducer phosphatase 1 (Homo sapiens, UniProt P30304); details: pH 8; 37 °C
T1 sequence (P30304 whole entry): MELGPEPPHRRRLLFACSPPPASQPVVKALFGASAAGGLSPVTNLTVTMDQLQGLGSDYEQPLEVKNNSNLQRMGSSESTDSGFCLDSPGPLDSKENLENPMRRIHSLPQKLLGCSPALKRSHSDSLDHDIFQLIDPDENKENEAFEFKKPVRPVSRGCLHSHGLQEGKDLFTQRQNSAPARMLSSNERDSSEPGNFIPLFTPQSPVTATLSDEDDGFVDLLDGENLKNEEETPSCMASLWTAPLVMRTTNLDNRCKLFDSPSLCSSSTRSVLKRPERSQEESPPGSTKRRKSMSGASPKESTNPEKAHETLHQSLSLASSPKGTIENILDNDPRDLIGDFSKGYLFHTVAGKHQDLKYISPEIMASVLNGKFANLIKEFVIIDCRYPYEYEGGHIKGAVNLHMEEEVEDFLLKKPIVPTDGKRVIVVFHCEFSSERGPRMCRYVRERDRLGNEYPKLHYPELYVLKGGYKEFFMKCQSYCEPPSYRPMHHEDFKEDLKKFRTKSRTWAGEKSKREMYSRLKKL

[2] = biological target: Dual specificity protein phosphatase 3 (Homo sapiens, UniProt P51452); details: pH 6.5; 37 °C
[3] = biological target: T2, Tyrosine-protein phosphatase non-receptor type 1 (Homo sapiens, UniProt P18031); details: pH 7.2; 37 °C
T2 sequence (P18031 whole entry): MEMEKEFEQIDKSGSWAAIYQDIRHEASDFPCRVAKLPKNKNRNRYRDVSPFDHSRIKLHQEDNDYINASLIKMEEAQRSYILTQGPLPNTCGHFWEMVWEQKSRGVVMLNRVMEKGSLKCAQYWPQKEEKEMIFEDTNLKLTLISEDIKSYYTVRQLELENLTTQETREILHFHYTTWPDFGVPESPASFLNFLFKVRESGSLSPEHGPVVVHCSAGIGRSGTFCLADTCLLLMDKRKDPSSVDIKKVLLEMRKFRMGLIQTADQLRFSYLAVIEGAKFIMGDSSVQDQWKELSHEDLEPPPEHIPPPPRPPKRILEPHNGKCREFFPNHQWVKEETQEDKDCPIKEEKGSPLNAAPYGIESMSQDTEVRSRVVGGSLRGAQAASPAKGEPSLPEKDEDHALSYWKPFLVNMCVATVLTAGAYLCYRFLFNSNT

Chain of Dual specificity protein phosphatase 3 (P51452 whole entry): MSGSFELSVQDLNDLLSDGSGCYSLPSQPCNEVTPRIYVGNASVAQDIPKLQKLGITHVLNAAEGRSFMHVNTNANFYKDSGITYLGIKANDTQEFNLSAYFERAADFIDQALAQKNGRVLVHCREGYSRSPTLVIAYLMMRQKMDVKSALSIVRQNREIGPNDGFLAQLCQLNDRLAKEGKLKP

IC50 [1] [µM]	IC50 [2] [µM]	IC50 [3] [µM]	Compound
> 50	9	12	C=CC/C=C(/C)c1ccc(C2=N/C(=C\c3ccc(CCCCC=C)[nH]3)C(OC)=C2)[nH]1 [Acyclic analogue, 12]
> 50	11	11	C=CCCCCc1ccc(/C=C2\N=C(c3ccc[nH]3)C=C2OC)[nH]1 [Acyclic analogue, 13]
> 50	21	10	CCc1ccc(/C=C2\N=C(c3ccc[nH]3)C=C2OC)[nH]1 [Acyclic analogue, 14]
> 50	39	28	C=CCCCCc1ccc(/C=C2\N=C(c3ccc(CCCC=C)s3)C=C2OC)[nH]1 [Acyclic analogue, 15]
> 50	8	46	C=CCCCCc1ccc(/C=C2\NC(=O)C=C2OC)[nH]1 [Acyclic analogue, 16]
> 50	21	16	COC1=CC(=O)N/C1=C\c1ccc(CCCC/C=C/CCCCC(=O)O)[nH]1 [Acyclic analogue, 18]
> 50	28	23	COC1=CC2=N/C1=C\c1ccc([nH]1)CCCC/C=C/CCCC1=CC=C2O1 [Cyclic analogue, 7]
> 50	41	24	COC1=CC2=N/C1=C\c1ccc([nH]1)CCCC/C=C/CCCCCCCCCCC1=CC=C2O1 [Cyclic analogue, 8]
> 50	30	> 50	COC1=CC2=N/C1=C\c1ccc([nH]1)CCCC/C=C/CCCc1cccc2c1 [Cyclic analogue, 9]
> 50	15	10	CC(C)[C@H]1c2cc3[nH]c2=C(c2ccc(-c4ccc[nH]4)o2)[C@@H]1CCCCCCCC=3 [Roseophilin analogue, 3]

Compound	IC50 [1] [µM]	IC50 [2] [µM]	IC50 [3] [µM]
COc1cc(-c2[nH]ccc2Cl)oc1C1=c2[nH]c3cc2[C@H](C(C)C)[C@H]1CCCCCCCC=3	28	32	38
C/C(=C1\C=CC=N1)c1ccc(-c2ccc[nH]2)o1	40	4.9	
C/C(=C1\C=CC=N1)c1ccc(-c2[nH]ccc2Cl)o1 [3-chloro-2-(5-{1-[(2Z)-2H-pyrrol-2-ylidene]ethyl}furan-2-yl)-1H-pyrrole, 4]	34	9	6
C=CCCCCc1ccc(/C=C2\N=C(c3ccc(CCCC=C)[nH]3)C=C2OC)[nH]1 [Acyclic analogue, 10]	> 50	> 50	> 50
C=CCCCCc1ccc(C=C2N=C(c3ccc(C(=O)CCC=C)[nH]3)C=C2OC)[nH]1 [Acyclic analogue, 11]	> 50	> 50	32
CCc1ccc(/C=C2\NC(=O)C=C2OC)[nH]1 [Acyclic analogue, 17]	> 50	> 50	> 50
COc1cc(-c2[nH]ccc2Cl)oc1C1=c2[nH]c3cc2[C@@H](C(C)C)[C@@H]1CCCCCCCC=3 [Roseophilin, 2]	21	6	6
